Assays:
Format in all cases: cell-based, mouse
[1] = system: spleen dendritic cells; assay: Fluorescence staining of CD86 in spleen dendritic cells, confocal microscope; settings: 24 hours
Method: In FIG. 11, culturing spleen dendritic cells (2×10^5/mL) and the prepared peptides were added at a concentration of 200 μg/mL, respectively, and after 6 hours, the expression level of CD86 using a PE-conjugated anti-CD86 antibody (eBioscience) was measured through a confocal microscope after fluorescence staining. After culturing spleen primary dendritic cells for a certain period of time, intracellular CD86, F-actin and nuclear staining was implemented. Expression of actin was stained with FITC-conjugated phalloidin (eBioscience), and nuclear staining was conducted with Hoechst 33342 (Sigma-Aldrich). For this purpose, cells cultured in a 48-well plate were placed in a 4% paraformaldehyde fixing solution, and then fixed at room temperature for 20 minutes.
Then, after washing twice with phosphate buffered saline solution, it was permeabilized with 0.1% Triton X-100 (Sigma-Aldrich) solution at room temperature for 5 minutes and washed twice with phosphate buffered saline solution. In order to remove non-specific staining, after reacting with 0.2% bovine serum albumin (Sigma-Aldrich) solution at room temperature for 20 minutes, it was washed twice with phosphate buffered saline solution. After that, the anti-CD86 antibody and phalloidine were diluted in 0.2% bovine serum albumin solution at a ratio of 1:40 and reacted for 40 minutes, washed 3 times with Tris buffer, placed on a slide glass, followed by counter-staining with Hoechst 33342 solution for nuclear staining of cells. After sealing with a cover glass, the cells were observed using a confocal laser microscope (K1 nanoscope).
In FIG. 26, spleen dendritic cells (2×10^5/mL) were dispensed in a 48-well plate, and linker peptides were each added at a concentration of 400 μg/mL, followed by culturing for 24 hours. Activation of spleen dendritic cells was induced by adding 1 μg/mL of LPS to the culture medium. The cultured cells were placed in a 4% paraformaldehyde fixing solution and fixed at room temperature for 20 minutes. After fluorescence staining using PE-conjugated anti-CD86 antibody (eBioscience), it was measured with a confocal microscope (K1 Nanoscope, Korea). Intracellular actin expression was stained with FITC-conjugated phalloidin (eBioscience), and nuclear staining was conducted with Hoechst 33342 (Sigma-Aldrich). CD86 antibody and phalloidin were diluted 1:40 in 0.2% bovine serum albumin solution and used.

[2] = system: spleen T cells from Balb/c mice; assay: Mixed lymphocyte reaction: proliferation of CFSE-stained allogeneic T cells co-cultured with spleen dendritic cells; settings: dendritic cells cultured with the substance and activated with LPS or poly (I:C), co-culture 1:20, 4 days
Method: Since the main role of activated dendritic cells is to induce antigen-specific T-cell activation and proliferation according to the stimulatory properties, it was investigated whether self-activated dendrite cells after culturing and dendritic cells activated with LPS after culturing with addition of peptides can induce T cell proliferation by mixed lymphocyte reaction (MLR) test. The spleen dendritic cells isolated from C57B/L6 mice were self-activated for 24 hours, otherwise, when cultured with addition of peptides or fibronectin, the cells were treated with LPS and activated. Spleen T cells from Balb/c mice were isolated using a CD4^+/CD8^+ T cell isolation kit (Miltenyi Biotec, Bergisch-Gladbach, Germany) and MACS column (Miltenyi Biotec), followed by 10 μM CFSE staining (Molecular Probes; Thermo Fisher Scientific Inc., USA). The activated dendritic cells and CFSE-stained T cells were co-cultured at a ratio of 1:20 for 4 days, and the T cell proliferation level was measured as a percentage of cells with decreased CFSE. […] In FIG. 22, the amount of cytokines secreted after co-culture of spleen dendritic cells and T cells for 4 days was measured by ELISA method. […]

[3] = system: spleen dendritic cells; assay: Distribution / clustering of cultured spleen dendritic cells by confocal microscope (DIC); settings: 200 μg/mL added, dendritic cells 2×10^5/mL, cultured 6 hours
Method: Mouse spleen dendritic cells were obtained by adding EDTA-BSS (Balanced Salt Solution) buffer and collagenase solution (DMEM containing 100 units of collagenase type IV, medium containing low glucose) to spleens of female C57BL/6 mice and cutting it with surgical scissors, mixing the same with 6 mL of collagenase treatment solution, and incubating the mixture for 30 minutes. The separated whole spleen tissue was filtered using a 70 μm cell strainer (Falcon), followed by centrifugation at 1800 rpm for 5 minutes thus to separate the cells. Red blood cells were removed by adding red blood cell lysis buffer (Sigma-Aldrich) to the cells and washed twice with RPMI-1640 medium containing 10% fetal bovine serum (FBS). Dendritic cells were reacted with CD11c^+ antibody-bound microbeads and isolated using CD11c Microbeads Ultrapure ([…] Biotec, USA). In FIG. 1, primary dendritic cells isolated from the spleen were dispensed in a 48-well plate and cultured for 24 hours in a cell chamber maintained at 37° C. and 5% CO2, and the extent of clustering in which cells were distributed or gathered into single cells was evaluated. […] The number of single cells and intercellular clusters was measured using ImageJ software (NIH, Bethesda). * indicates statistical significance as P<0.05 or less compared with 0 h. […]

[4] = system: spleen primary dendritic cells; assay: ELISA of TNF-α / IL-12p40 secreted by cultured spleen primary dendritic cells; settings: 24 hours
Method: In FIG. 12, spleen primary dendritic cells were dispensed at 1×10^6/mL and cultured for 24 hours, and then a concentration of TNF-α secreted from these cells in the culture medium was measured. As a result, it was confirmed that the secretion increased in a time-dependent manner. The concentration of TNF-α was measured at 450 nm using an ELISA kit (R&D systems) and a microplate analyzer (Synergy H1, Biotek). However, when dendritic cells were dispensed at 2×10^5/mL, CD86 expression was increased but TNF-α secretion was not increased (results not presented). * indicates statistical significance as P<0.05 or less compared with 3 h.
In FIG. 13, spleen primary dendritic cells were dispensed at 1×10^6/mL and cultured for 24 hours. […] Furthermore, when P4, P5 and P6 peptides were added at a concentration of 200 μg/mL, respectively, the secretion of TNF-α was not inhibited.
Therefore, it could be seen that fibronectin has a disadvantage of inhibiting the activation by stimulants although can maintain the inactivation of spleen dendritic cells. * indicates statistical significance as P<0.05 or less compared to -LPS.
In FIG. 27, an ELISA kit (R&D systems) was used to measure the concentration of TNF-α secreted into the culture medium when spleen primary dendritic cells were dispensed at 2×10^5/mL and cultured for 24 hours. The concentration was determined at 450 nm by a microplate analyzer (Synergy H1, Biotek).

fibronectin was tested, and the CD86-expressing cells ([1]; with 1 μg/mL LPS) was “almost not measured”, the CD86-expressing cells ([1]; without LPS, linker peptides 400 μg/mL) was “almost not observed” and the “T cell proliferation (cells with decreased CFSE)” value [2] was “not inducing T cell proliferation”. For the same substance, the “cell aggregation (distribution of cells)” value [3] was “significantly reduced”, the “secretion of TNF-α and IL-12p40” value ([4]; 1 μg/mL LPS) was “did not produce these cytokines” and the “secretion of TNF-α” value ([4]; cells 1×10^6/mL, no stimulant) was “hardly measured”. The TNF-α secretion ([4]; cells 2×10^5/mL, without LPS) was “hardly occurred”.

— patent US20240207308A1, “METHOD FOR CULTURING DENDRITIC CELLS” (NANOFAENTECH CO., LTD., priority 2021, published 2024)
